Laboratory results from patent publication US12435128B2, “Method for predicting therapeutic effect of LSD1 inhibitor based on expression of INSM1” (TAIHO PHARMACEUTICAL CO., LTD., priority 2017, dated 2025).
Counter-ions that a name gives are not always drawn. Like-named read-outs stand apart in the source and are kept apart here.

How the values were obtained:
[1] = test system: NCI-H146 cells (human small-cell lung cancer cell lines); experiment: Cell-growth inhibition test: NCI-H146 cells; type: cell-based; conditions: NCI-H146 cells; read-out: IC50 (nM), Cell-Growth Inhibition Test: NCI-H146 Cells
Description: (§1) Under the following conditions, an in vitro cell-growth inhibition test was performed with respect to HEL cells (human acute myelocytic leukemia cell lines), NCI-H1417 cells (human small-cell lung cancer cell lines), and NCI-H146 cells (human small-cell lung cancer cell lines).
(§2) The cells with the Example compound or with dimethylsulfoxide alone were cultured at 37° C. in a 5% carbon-dioxide-containing incubator for 5 days (HEL cells) or 10 days (NCI-H1417 cells and NCI-H146 cells). After culture, the plate was allowed to stand at room temperature for 30 minutes, and 100 μL of the supernatant was removed from each well to leave 100 μL of the cell culture solution. To each well containing the remaining 100 μL of the cell culture solution, the same amount of CellTiter-Glo 2.0 Assay (Promega, Cat #: G9242) was added. The microplate was shaken with a plate mixer for 1 minute and then allowed to stand in a dark place for 10 minutes. Thereafter, the luminescence intensity of viable cells in each well was measured using a microplate reader (PerkinElmer, EnSpire). […] Cell growth rate(%)=T/C×100 • T: The luminescence intensity in a well to which the test compound was added (count per second) • C: The luminescence intensity in a well to which dimethylsulfoxide alone was added (count per second)

[2] = test system: NCI-H1417 cells (human small-cell lung cancer cell lines); experiment: Cell-growth inhibition test: NCI-H1417 cells; type: cell-based; conditions: read-out: IC50 (nM), Cell-Growth Inhibition Test: NCI-H1417 Cells
Description: as §1, §2

[3] = test system: HEL cells (human acute myelocytic leukemia cell lines); experiment: Cell-growth inhibition test: HEL cells; type: cell-based; conditions: read-out: IC50 (nM), Cell-Growth Inhibition Test: HEL Cells
Description: as §1, §2

DMS79 cells = experiment: Cell-growth inhibitory effects of LSD1 inhibitor on non-sensitive strain DMS79; type: cell-based, human; conditions: 10 days
Description: (§3) As a medium, 10% FBS-containing RPMI1640 was used. Cell lines were seeded in a 96-well flat-bottom microplate in an amount of 120 μL, and a well containing 160 μL of medium alone was also prepared for background measurement. […] After culture, the microplate was allowed to stand at room temperature for 30 minutes. To 160 μL of the cell culture solution or the medium containing no cells, 140 μL of CellTiter-Glo 2.0 Assay (Promega) was added. After the microplate was allowed to stand at room temperature for 10 minutes, the luminescence intensity of viable cells in each well was measured using a microplate reader (PerkinElmer, EnSpire). The IC35 of each drug was obtained in the same manner as above.

NCI-H1417 cells = experiment: Cell-growth inhibitory effects of LSD1 inhibitor on sensitive strain NCI-H1417; type: cell-based, human; conditions: 10 days
Description: as §3

IC50 ([2]; NCI-H1417 cells) [nM] | IC50 ([3]; HEL cells) [nM] | SMILES | IC50 [1] [nM] | IC50 [2] [nM] | IC50 [3] [nM] | growth inhibitory effects (DMS79 cells) | growth inhibitory effects (NCI-H1417 cells)
– | – | CCC(O)(CC)Cn1nnc2cc(-c3ccc(C(=O)N4C5CCC4CC(N)C5)cc3-c3ccc(C#N)c(F)c3)c(F)c(Cl)c21 (stereo not drawn) [Example 220, 5′-((3-endo)-3-amino-8-azabicyclo[3.2.1]octane-8-carbonyl)-2′-(7-chloro-1-(2-ethyl-2-hydroxybutyl)-6-fluoro-1H-benzo[d][1,2,3]triazol-5-yl)-3-fluoro-[1,1′-biphenyl]-4-carbonitrile] | 1.81 | 1.03 | 1.09 | – | –
– | – | N#Cc1ccc(-c2cc(C(=O)N3[C@@H]4CC[C@H]3[C@@H](N)C4)ccc2-c2cc3nnn(CC4(O)CCC4)c3c(C#N)c2F)cc1F (single isomer, unassigned) [Example 264] | 0.96 | 0.3 | 0.84 | – | –
4.73 | 3.55 | Cn1ccc2cc(-c3ccc(C(=O)N4C5CCC4CC(N)C5)cc3-c3ccc(C#N)c(F)c3)ccc21 (stereo not drawn) [Example 18, 4-[5-[(3-exo)-3-amino-8-azabicyclo[3.2.1]octane-8-carbonyl]-2-(1-methylindol-5-yl)phenyl]-2-fluoro-benzonitrile] | 8.13 | – | – | – | –
– | – | N#Cc1ccc(-c2cc(C(=O)N3[C@@H]4CC[C@H]3[C@@H](N)C4)ccc2-c2cc3nnn(CC4(O)CCC4)c3c(C(F)F)c2F)cc1F (single isomer, unassigned) [Example 260] | 0.48 | 0.13 | 0.13 | – | –
– | – | CC(C)(O)Cn1nnc2cc(-c3ccc(C(=O)N4C5CCC4CC(N)C5)cc3-c3ccc(C#N)c(F)c3)c(F)c(C(F)F)c21 (stereo not drawn) [Example 250, 5′-((3-endo)-3-amino-8-azabicyclo[3.2.1]octane-8-carbonyl)-2′-(7-(difluoromethyl)-6-fluoro-1-(2-hydroxy-2-methylpropyl)-1H-benzo[d][1,2,3]triazol-5-yl)-3-fluoro-[1,1′-biphenyl]-4-carbonitrile] | 9.3 | 1.2 | 2.36 | – | –
– | – | Cc1c(F)c(-c2ccc(C(=O)N3C4CCC3CC(N)C4)cc2-c2ccc(C#N)c(F)c2)cc2nnn(CC(C)(C)O)c12 (stereo not drawn) [Example 240, 5′-((3-endo)-3-amino-8-azabicyclo[3.2.1]octane-8-carbonyl)-3-fluoro-2′-(6-fluoro-1-(2-hydroxy-2-methylpropyl)-7-methyl-1H-benzo[d][1,2,3]triazol-5-yl)-[1,1′-biphenyl]-4-carbonitrile] | 4.81 | 2.55 | 4.2 | – | –
– | – | Cc1c(F)c(-c2ccc(C(=O)N3[C@@H]4CC[C@H]3[C@@H](N)C4)cc2-c2ccc(C#N)c(F)c2)cc2nnn(CC(C)(C)O)c12 (single isomer, unassigned) [Example 228] | 0.51 | 0.3 | 0.68 | – | –
– | – | N#Cc1ccc(-c2cc(C(=O)N3C4CCC3CC(N)C4)ccc2-c2cc3nnn(CC4(O)CCC4)c3c(C#N)c2F)cc1F (stereo not drawn) [Example 266, 5-(5-((3-endo)-3-amino-8-azabicyclo[3.2.1]octane-8-carbonyl)-4′-cyano-3′-fluoro-[1,1′-biphenyl]-2-yl)-6-fluoro-1-((1-hydroxycyclobutyl)methyl)-1H-benzo[d][1,2,3]triazole-7-carbonitrile] | 17.5 | 1.85 | 4.63 | – | –
– | – | CCC(O)(CC)Cn1nnc2cc(-c3ccc(CN4[C@@H]5CC[C@H]4[C@@H](N)C5)cc3-c3ccc(C#N)c(F)c3)c(F)c(Cl)c21 (single isomer, unassigned) [Example 288, dihydrochloride] | 1.29 | 0.22 | 0.062 | – | –
– | – | CC(C)(O)Cn1nnc2cc(-c3ccc(C(=O)N4[C@@H]5CC[C@H]4[C@@H](N)C5)cc3-c3ccc(C#N)c(F)c3)c(F)c(C#N)c21 (single isomer, unassigned) [Example 247] | 3.84 | 1.4 | 3.02 | – | –
– | – | N#Cc1ccc(-c2cc(C(=O)N3[C@@H]4CC[C@H]3[C@@H](N)C4)ccc2-c2cc3nnn(CC4(O)CCC4)c3c(F)c2F)cc1F (single isomer, unassigned) [Example 254] | 0.36 | 0.18 | 0.2 | – | –
– | – | CCC(O)(CC)Cn1nnc2cc(-c3ccc(C(=O)N4[C@@H]5CC[C@H]4[C@@H](N)C5)cc3-c3ccc(C#N)c(F)c3)c(F)c(Cl)c21 (single isomer, unassigned) [Example 218] | 0.33 | 0.21 | 0.22 | – | –
– | – | CC(C)(O)CCn1ncc2cc(-c3ccc(C(=O)N4C5CCC4CC(N)C5)cc3-c3ccc(C#N)c(F)c3)c(F)cc21 (stereo not drawn) [Example 194, 5′-((3-endo)-3-amino-8-azabicyclo[3.2.1]octane-8-carbonyl)-3-fluoro-2′-(6-fluoro-1-(3-hydroxy-3-methylbutyl)-1H-indazol-5-yl)-[1,1′-biphenyl]-4-carbonitrile] | 11.3 | 5.63 | 15.5 | – | –
– | – | N#Cc1ccc(-c2cc(C(=O)N3C4CCC3CC(N)C4)ccc2-c2cc3nnn(CC4(O)CCC4)c3c(C(F)F)c2F)cc1F (stereo not drawn) [Example 262, 5′-((3-endo)-3-amino-8-azabicyclo[3.2.1]octane-8-carbonyl)-2′-(7-(difluoromethyl)-6-fluoro-1-((1-hydroxycyclobutyl)methyl)-1H-benzo[d][1,2,3]triazol-5-yl)-3-fluoro-[1,1′-biphenyl]-4-carbonitrile] | 3.1 | 0.7 | 0.93 | – | –
– | – | CC(C)(O)Cn1nnc2cc(-c3ccc(CN4[C@@H]5CC[C@H]4[C@@H](N)C5)cc3-c3ccc(C#N)c(F)c3)c(F)c(F)c21.Cl.Cl (single isomer, unassigned) [Example 285] | – | – | – | did not show growth inhibitory effects | showed growth inhibitory effects
– | – | N#Cc1ccc(-c2cc(CN3[C@@H]4CC[C@H]3[C@@H](N)C4)ccc2-c2cc3nnn(CC4(O)CCC4)c3c(Cl)c2F)cc1F (single isomer, unassigned) [Example 286, dihydrochloride] | 0.17 | 0.083 | 0.036 | – | –
– | – | CCC(O)(CC)Cn1ncc2cc(-c3ccc(C(=O)N4C5CCC4CC(N)C5)cc3-c3ccc(C#N)c(F)c3)c(F)cc21 (stereo not drawn) [Example 205, 5′-((3-endo)-3-amino-8-azabicyclo[3.2.1]octane-8-carbonyl)-2′-(1-(2-ethyl-2-hydroxybutyl)-6-fluoro-1H-indazol-5-yl)-3-fluoro-[1,1′-biphenyl]-4-carbonitrile] | 15.1 | 6.25 | 4.95 | – | –
– | – | CC(C)(O)Cn1ccc2cc(-c3ccc(CN4[C@@H]5CC[C@H]4[C@@H](N)C5)cc3-c3ccc(C#N)c(F)c3)c(F)cc21 (single isomer, unassigned) [Example 289, dihydrochloride] | 0.97 | 0.094 | 0.036 | – | –
– | – | CNC(=O)c1cn(C)c2cc(F)c(-c3ccc(C(=O)N4[C@@H]5CC[C@H]4[C@@H](N)C5)cc3-c3ccc(C#N)c(F)c3)cc12 (single isomer, unassigned) [Example 237] | 5.14 | 6.63 | 28.5 | – | –
– | – | Cc1noc2cc(-c3ccc(C(=O)N4[C@@H]5CC[C@H]4[C@@H](N)C5)cc3-c3ccc(C#N)c(F)c3)c(F)cc12 (single isomer, unassigned) [Example 202] | 0.73 | 0.62 | 0.24 | – | –
– | – | CC(C)(O)Cn1nnc2cc(-c3ccc(CN4[C@@H]5CC[C@H]4[C@@H](N)C5)cc3-c3ccc(C#N)c(F)c3)c(F)c(F)c21.Cl.Cl (single isomer, unassigned) [Example 285, dihydrochloride] | 0.49 | 0.09 | 0.046 | – | –
– | – | CN(C)C(=O)c1cn(C)c2cc(F)c(-c3ccc(C(=O)N4[C@@H]5CC[C@H]4[C@@H](N)C5)cc3-c3ccc(C#N)c(F)c3)cc12 (single isomer, unassigned) [Example 238] | 17.7 | 10.8 | 26.1 | – | –
3.57 | 1.99 | Cn1ccc2cc(-c3ccc(C(=O)N4C5CCC4CC(N)C5)cc3-c3ccc(C#N)c(F)c3)c(F)cc21 (stereo not drawn) [Example 123, 4-[5-[(3-endo)-3-amino-8-azabicyclo[3.2.1]octane-8-carbonyl]-2-(6-fluoro-1-methyl-indol-5-yl)phenyl]-2-fluoro-benzonitrile] | 1.39 | – | – | – | –
